Measured values reported in patent publication US8614327B2 (Vertex Pharmaceuticals Incorporated, priority 2004, dated 2013).

Molecular target: T1, ΔF508-CFTR (Homo sapiens, UniProt P13569, DEL508-508)
T1 construct: expressed in transfected cells
Test: Membrane potential optical (FRET/VIPR) assay, identification of potentiator compounds
Assay type: cell-based
Settings: Table 3, assay not given; for % Activity: relative efficacy
Method in brief: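 Double-addition potentiator screen: compound delivered in gluconate-substituted Cl^--free medium, membrane potential followed via CC2-DMPE/DiSBAC2(3) FRET on VIPR. Cells were ΔF508-CFTR-expressing NIH3T3 mouse fibroblasts, held 2 h at 37° C. then 24 h at 27° C. before assay.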

T1 sequence (P13569 with tags, fused parts or gaps DEL508-508): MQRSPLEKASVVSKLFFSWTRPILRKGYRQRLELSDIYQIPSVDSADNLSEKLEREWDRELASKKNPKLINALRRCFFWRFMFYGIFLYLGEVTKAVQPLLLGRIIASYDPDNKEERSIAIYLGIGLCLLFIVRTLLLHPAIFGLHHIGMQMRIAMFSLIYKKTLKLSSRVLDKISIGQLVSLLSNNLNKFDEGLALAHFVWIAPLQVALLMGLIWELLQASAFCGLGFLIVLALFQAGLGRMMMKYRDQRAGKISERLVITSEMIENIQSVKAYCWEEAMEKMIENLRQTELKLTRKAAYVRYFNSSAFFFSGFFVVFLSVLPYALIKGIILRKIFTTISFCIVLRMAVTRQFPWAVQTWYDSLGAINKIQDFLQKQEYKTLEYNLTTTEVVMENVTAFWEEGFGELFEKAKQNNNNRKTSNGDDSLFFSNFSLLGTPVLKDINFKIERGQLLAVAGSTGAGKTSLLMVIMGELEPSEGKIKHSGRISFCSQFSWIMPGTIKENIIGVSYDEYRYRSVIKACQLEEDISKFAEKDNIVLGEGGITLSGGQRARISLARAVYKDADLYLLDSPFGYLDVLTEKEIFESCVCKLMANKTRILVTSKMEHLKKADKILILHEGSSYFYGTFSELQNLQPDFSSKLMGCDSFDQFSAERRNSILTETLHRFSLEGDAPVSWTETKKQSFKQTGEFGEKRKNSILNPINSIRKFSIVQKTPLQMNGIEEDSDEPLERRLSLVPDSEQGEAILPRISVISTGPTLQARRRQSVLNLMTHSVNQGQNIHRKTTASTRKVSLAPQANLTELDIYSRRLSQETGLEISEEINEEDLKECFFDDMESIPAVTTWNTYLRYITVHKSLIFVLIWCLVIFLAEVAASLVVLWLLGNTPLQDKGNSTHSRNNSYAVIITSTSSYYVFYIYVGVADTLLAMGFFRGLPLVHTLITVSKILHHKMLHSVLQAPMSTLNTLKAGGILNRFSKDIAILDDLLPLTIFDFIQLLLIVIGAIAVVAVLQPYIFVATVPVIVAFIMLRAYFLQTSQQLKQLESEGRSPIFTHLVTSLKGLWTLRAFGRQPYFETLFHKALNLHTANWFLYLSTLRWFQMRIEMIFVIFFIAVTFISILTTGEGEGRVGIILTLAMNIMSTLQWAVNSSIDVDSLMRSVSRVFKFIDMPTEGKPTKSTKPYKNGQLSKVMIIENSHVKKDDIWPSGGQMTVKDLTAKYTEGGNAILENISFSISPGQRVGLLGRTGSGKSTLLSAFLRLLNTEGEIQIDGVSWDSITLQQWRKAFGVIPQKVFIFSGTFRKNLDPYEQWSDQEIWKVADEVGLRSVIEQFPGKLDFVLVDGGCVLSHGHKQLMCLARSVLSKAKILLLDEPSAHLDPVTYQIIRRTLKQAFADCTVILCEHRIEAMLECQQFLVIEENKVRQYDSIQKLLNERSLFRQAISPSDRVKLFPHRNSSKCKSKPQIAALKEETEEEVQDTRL

EC50	% Activity	SMILES
10 to 25 µM	++ (between 25% to 100%)	CC(C)n1cc(C(=O)Nc2ccccc2C(C)(C)C)c(=O)c2ccccc21 [Compound 473, 1-isopropyl-4-oxo-N-(2-tert-butylphenyl)-1H-quinoline-3-carboxamide]
25 to 60 µM	+ (<25%)	Cn1c(=O)oc2ccc(NC(=O)c3c[nH]c4ccccc4c3=O)cc21 [Compound 474, N-(3-methyl-2-oxo-3H-benzooxazol-5-yl)-4-oxo-1H-quinoline-3-carboxamide]
< 10 µM	++ (between 25% to 100%)	CC(C)(C)c1cc(C#N)c(NC(=O)c2c[nH]c3ccccc3c2=O)cc1O [Compound 476, N-(4-tert-Butyl-2-cyano-5-hydroxyphenyl)-1,4-dihydro-4-oxoquinoline-3-carboxamide]
25 to 60 µM	+ (<25%)	O=C(Nc1ccc(F)cn1)c1c[nH]c2ccccc2c1=O [Compound 477, N-(5-fluoro-2-pyridyl)-4-oxo-1H-quinoline-3-carboxamide]
< 10 µM	++ (between 25% to 100%)	CC(C)(C)c1c[nH]c2cc(NC(=O)c3c[nH]c4ccccc4c3=O)ccc12 [Compound 478, 4-oxo-N-(3-tert-butyl-1H-indol-6-yl)-1H-quinoline-3-carboxamide]
< 10 µM	++ (between 25% to 100%)	COc1cccc2[nH]cc(C(=O)Nc3ccc4cc[nH]c4c3)c(=O)c12 [Compound 479, N-(1H-indol-6-yl)-5-methoxy-4-oxo-1H-quinoline-3-carboxamide]
25 to 60 µM	+ (<25%)	CCn1cc(C(=O)Nc2ccccc2)c(=O)c2cc(OC)ccc21 [Compound 480, 1-ethyl-6-methoxy-4-oxo-N-phenyl-1H-quinoline-3-carboxamide]
10 to 25 µM	++ (between 25% to 100%)	CCOC(=O)NC1CCCc2ccc(NC(=O)c3c[nH]c4ccccc4c3=O)cc21 (stereo not shown) [Compound 482, [7-[(4-Oxo-1H-quinolin-3-yl)carbonylamino]tetralin-1-yl]aminoformic acid ethyl ester]
< 10 µM	++ (between 25% to 100%)	CC1(c2cc(F)c(NC(=O)c3cnc4ccccc4c3O)cc2O)CCCCCC1 [Compound 483, N-[2-fluoro-5-hydroxy-4-(1-methylcycloheptyl)-phenyl]-4-hydroxy-quinoline-3-carboxamide]
< 10 µM	++ (between 25% to 100%)	CNc1cc(NC(=O)c2c[nH]c3ccccc3c2=O)ccc1C(C)(C)C [Compound 484, N-(3-methylamino-4-tert-butyl-phenyl)-4-oxo-1H-quinoline-3-carboxamide]
	++ (between 25% to 100%)	CN(C)c1cc(NC(=O)c2c[nH]c3ccccc3c2=O)ccc1C(C)(C)C [Compound 485, N-(3-Dimethylamino-4-tert-butyl-phenyl)-4-oxo-1H-quinoline-3-carboxamide]
< 10 µM	++ (between 25% to 100%)	CC(C)(C)c1cc(F)c(NC(=O)c2c[nH]c3cc(F)c(F)cc3c2=O)cc1O [Compound 486, 6,7-difluoro-N-(2-fluoro-5-hydroxy-4-tert-butyl-phenyl)-4-oxo-1H-quinoline-3-carboxamide]
< 10 µM	++ (between 25% to 100%)	CC(C)(C)c1cc(C(F)(F)F)c(NC(=O)c2c[nH]c3cccc(O)c3c2=O)cc1O [Compound 487, 5-hydroxy-N-[5-hydroxy-4-tert-butyl-2-(trifluoromethyl)phenyl]-4-oxo-1H-quinoline-3-carboxamide]
< 10 µM	++ (between 25% to 100%)	O=C(Nc1cc(N2CCCCC2)cc(C(F)(F)F)c1)c1c[nH]c2ccccc2c1=O [Compound 488, 4-oxo-N-[3-(1-piperidyl)-5-(trifluoromethyl)phenyl]-1H-quinoline-3-carboxamide]
< 10 µM	++ (between 25% to 100%)	Cc1ccc2[nH]cc(C(=O)Nc3ccc(N4CCC(C)(C)C4)cc3C(F)(F)F)c(=O)c2c1 [Compound 489, N-[4-(3,3-dimethylpyrrolidin-1-yl)-2-(trifluoromethyl)phenyl]-6-methyl-4-oxo-1H-quinoline-3-carboxamide]
< 10 µM	++ (between 25% to 100%)	CC(C)(C)c1ccc(NC(=O)c2c[nH]c3ccc(F)cc3c2=O)cc1O [Compound 490, 6-fluoro-N-(3-hydroxy-4-tert-butyl-phenyl)-4-oxo-1H-quinoline-3-carboxamide]
< 10 µM	++ (between 25% to 100%)	CC(C)(C)c1ccc(NC(=O)c2c[nH]c3cccc(O)c3c2=O)cc1F [Compound 491, N-(3-fluoro-4-tert-butyl-phenyl)-5-hydroxy-4-oxo-1H-quinoline-3-carboxamide]
< 10 µM	+++ (>100%)	COC(=O)C1CCCCN1c1ccc(NC(=O)c2c[nH]c3ccccc3c2=O)c(C(F)(F)F)c1 (stereo not shown) [Compound 492, methyl 1-[4-[(4-oxo-1H-quinolin-3-yl)carbonylamino]-3-(trifluoromethyl)phenyl]piperidine-2-carboxylate]
< 10 µM	++ (between 25% to 100%)	CC(CO)(CO)c1ccc(NC(=O)c2c[nH]c3cccc(O)c3c2=O)cc1 [Compound 493, 5-hydroxy-N-[4-[2-hydroxy-1-(hydroxymethyl)-1-methyl-ethyl]phenyl]-4-oxo-1H-quinoline-3-carboxamide]
< 10 µM	++ (between 25% to 100%)	O=C(Nc1cc2[nH]ccc2cc1C(F)(F)F)c1c[nH]c2cccc(O)c2c1=O [Compound 494, 5-hydroxy-4-oxo-N-[5-(trifluoromethyl)-1H-indol-6-yl]-1H-quinoline-3-carboxamide]
< 10 µM	++ (between 25% to 100%)	O=C(Nc1ccc2cc(C(F)(F)F)[nH]c2c1)c1c[nH]c2ccc(F)cc2c1=O [Compound 495, 6-fluoro-4-oxo-N-[2-(trifluoromethyl)-1H-indol-6-yl]-1H-quinoline-3-carboxamide]
< 10 µM	++ (between 25% to 100%)	COc1ccc2[nH]cc(C(=O)Nc3cc(O)c(C(C)(C)C)cc3C(C)(C)C)c(=O)c2c1 [Compound 496, N-(5-hydroxy-2,4-ditert-butyl-phenyl)-6-methoxy-4-oxo-1H-quinoline-3-carboxamide]
< 10 µM	+++ (>100%)	CC(C)c1cc(C(F)(F)F)c(NC(=O)c2c[nH]c3ccccc3c2=O)cc1O [Compound 497, N-[5-hydroxy-4-isopropyl-2-(trifluoromethyl)phenyl]-4-oxo-1H-quinoline-3-carboxamide]
< 10 µM	++ (between 25% to 100%)	Cc1cccc2[nH]cc(C(=O)Nc3cc(O)c(C4(C)CCCCC4)cc3F)c(=O)c12 [Compound 498, N-[2-fluoro-5-hydroxy-4-(1-methylcyclohexyl)-phenyl]-5-methyl-4-oxo-1H-quinoline-3-carboxamide]

SMILES	EC50	% Activity
O=C(Nc1ccc2ccccc2c1)c1c[nH]c2ccccc2c1=O [Compound 481, N-(2-naphthyl)-4-oxo-1H-quinoline-3-carboxamide]	< 10 µM	++ (between 25% to 100%)
